From patent publication US20220313656A1, “NEW CLASS OF ANTIBIOTICS HAVING LOW MIC-VALUES TOWARDS DIFFERENT STRAINS OF BACTERIA” (priority 2019, published 2022)
Like-named read-outs stand apart in the source and are kept apart here.

Assays:
Assay in all cases: MIC, serial dilution method (CLSI)
E. faecium = format: cell-based, Enterococcus faecium
Experimental: (§1) These inoculums were each in diluted 1:100 in Müller Hinton (MH) broth (Sigma, Copenhagen, Denmark). From the diluted inoculums 100 μl was transferred to each well in a 96-well plate and mixed with the compound to be MIC determined. The plate was incubated for 24 hours at 37° C. (without shaking). The MIC value was determined as the lowest concentration in which no bacterial growth could be visually detected. All MIC determinations were done in duplicates. […] Since all derivatives are new, no control strains (with reference MIC values) were available.

E. coli APEC O2 = format: cell-based, Escherichia coli
Experimental: as §1

[1] = system: Staphylococus pseudintermedius; format: cell-based, Staphylococcus pseudintermedius
Experimental: as §1

E. faecalis = format: cell-based, Enterococcus faecalis
Experimental: as §1

Salmonella enteritidis = format: cell-based
Experimental: as §1

Streptococcus equi = format: cell-based
Experimental: as §1

Listeria monocytogenes = format: cell-based
Experimental: as §1

Bacillus cereus = format: cell-based
Experimental: as §1

S. aureus CC398 = format: cell-based, Staphylococcus aureus
Experimental: as §1

S. aureus USA300 = format: cell-based, Staphylococcus aureus
Experimental: as §1

[2] = E. faecium, MH broth, 24 hours at 37° C., set to 256 if growth at […]
[3] = E. coli APEC O2, MH broth, 24 hours at 37° C., set to 256 if growth at […]
[4] = Staphylococus pseudintermedius, MH broth, 24 hours at 37° C., set to 256 if growth at […]
[5] = E. faecalis, MH broth, 24 hours at 37° C., set to 256 if growth at […]
[6] = Salmonella enteritidis, MH broth, 24 hours at 37° C., set to 256 if growth at […]
[7] = MH broth, 24 hours at 37° C., set to 256 if growth at […]
[8] = S. aureus CC398 (MRSA strain), MH broth, 24 hours at 37° C., set to 256 if growth at […]
[9] = S. aureus USA300, MH broth, 24 hours at 37° C., set to 256 if growth at […]
[10] = Enterococcus faecium, 24 h, read-out: MIC
[11] = Escherichia coli, APECO2, 24 h, read-out: MIC
[12] = Staphylococcus pseudintermedius, 24 h, read-out: MIC
[13] = Enterococcus faecalis, 24 h, read-out: MIC
[14] = Salmonella enterica, ENTERITIDIS, 24 h, read-out: MIC
[15] = Staphylococcus aureus, MRSA, 24 h, read-out: MIC
[16] = Staphylococcus aureus, USA300, 24 h, read-out: MIC

In the case of `COC(=O)CCCCC[N+](C)(C)C(C)CN1c2ccccc2Sc2ccccc21` (stereo not drawn) [Promethazine 6-Methoxy-6-oxo-1-hexyl], the MIC (E. faecium; [2]) is reported as 128 mg/L, the MIC (E. coli APEC O2; [3]) is reported as 256 mg/L and the MIC [1, 4] is reported as 32 mg/L. The MIC (E. faecalis; [5]) was 256 mg/L, the MIC (Salmonella enteritidis; [6]) was 256 mg/L and the MIC (Streptococcus equi; [7]) was 32 mg/L. It also gave an MIC (Listeria monocytogenes; [7]) of 128 mg/L, an MIC (Bacillus cereus; [7]) of 128 mg/L and an MIC (S. aureus CC398; [8]) of 64 mg/L. It also gave an MIC (S. aureus USA300; [9]) of 64 mg/L.

Compound `C=CC[N+](C)(C)CCCN1c2ccccc2Sc2ccc(Cl)cc21.[Br-]` [Compound S40, N-(3-(2-chloro-10H-phenothiazin-10-yl)propyl)-N,N-dimethylprop-2-en-1-aminium bromide] has an MIC (E. faecium; [10]) of 64 mg/L, an MIC (E. coli APEC O2; [11]) of 256 mg/L and an MIC [1, 12] of 8 mg/L. The MIC (E. faecalis; [13]) was 64 mg/L, the MIC (Salmonella enteritidis; [14]) was 128 mg/L and the MIC (Streptococcus equi; 24 h, read-out: MIC) was 8 mg/L. It also gave an MIC (Listeria monocytogenes; 24 h, read-out: MIC) of 32 mg/L, an MIC (Bacillus cereus; 24 h, read-out: MIC) of 64 mg/L and an MIC (S. aureus CC398; [15]) of 16 mg/L. It also gave an MIC (S. aureus USA300; [16]) of 16 mg/L.

Compound `CC[N+](C)(C)CCCN1c2ccccc2Sc2ccc(Cl)cc21.[Br-]` [Compound S3, 3-(2-chloro-10H-phenothiazin-10-yl)-N-ethyl-N,N-dimethylpropan-1-aminium bromide] has an MIC (E. faecium; [10]) of 32 mg/L, an MIC (E. coli APEC O2; [11]) of 256 mg/L and an MIC [1, 12] of 8 mg/L. For the same compound, the MIC (E. faecalis; [13]) was 128 mg/L, the MIC (Salmonella enteritidis; [14]) was 256 mg/L and the MIC (Streptococcus equi; 24 h, read-out: MIC) was 16 mg/L. It also gave an MIC (Listeria monocytogenes; 24 h, read-out: MIC) of 32 mg/L, an MIC (Bacillus cereus; 24 h, read-out: MIC) of 32 mg/L and an MIC (S. aureus CC398; [15]) of 16 mg/L. For the same compound, the MIC (S. aureus USA300; [16]) was 16 mg/L.

For `C[N+](C)(CCC=C1c2ccccc2Sc2ccc(Cl)cc21)Cc1ccccc1` [Chlorprothixene Benzyl], the MIC (E. faecium; [2]) was 16 mg/L, the MIC (E. coli APEC O2; [3]) was 64 mg/L and the MIC [1, 4] was 2 mg/L. The MIC (E. faecalis; [5]) was 16 mg/L, the MIC (Salmonella enteritidis; [6]) was 64 mg/L and the MIC (Streptococcus equi; [7]) was 2 mg/L. The MIC (Listeria monocytogenes; [7]) was 32 mg/L, the MIC (Bacillus cereus; [7]) was 16 mg/L and the MIC (S. aureus CC398; [8]) was 2 mg/L. It also gave an MIC (S. aureus USA300; [9]) of 4 mg/L.

Work on `C[N+](C)(C)CCCN1c2ccccc2Sc2ccc(Cl)cc21.[I-]` [Compound S2, 3-(2-chloro-10H-phenothiazin-10-yl)-N,N,N-trimethylpropan-1-aminium iodide] yielded an MIC (E. faecium; [10]) of 32 mg/L, an MIC (E. coli APEC O2; [11]) of 256 mg/L and an MIC [1, 12] of 8 mg/L. It also gave an MIC (E. faecalis; [13]) of 128 mg/L, an MIC (Salmonella enteritidis; [14]) of 256 mg/L and an MIC (Streptococcus equi; 24 h, read-out: MIC) of 16 mg/L. It also gave an MIC (Listeria monocytogenes; 24 h, read-out: MIC) of 64 mg/L, an MIC (Bacillus cereus; 24 h, read-out: MIC) of 32 mg/L and an MIC (S. aureus CC398; [15]) of 32 mg/L. It also gave an MIC (S. aureus USA300; [16]) of 32 mg/L.

In the case of `CSc1ccc2c(c1)N(CCC1CCCC[N+]1(C)Cc1ccccc1)c1ccccc1S2` (stereo not drawn) [Thioridazine Benzyl], the MIC (E. faecium; [2]) is reported as 8 mg/L, the MIC (E. coli APEC O2; [3]) is reported as 128 mg/L and the MIC [1, 4] is reported as 2 mg/L. For the same compound, the MIC (E. faecalis; [5]) was 8 mg/L, the MIC (Salmonella enteritidis; [6]) was 64 mg/L and the MIC (Streptococcus equi; [7]) was 2 mg/L. The MIC (Listeria monocytogenes; [7]) was 4 mg/L, the MIC (Bacillus cereus; [7]) was 2 mg/L and the MIC (S. aureus CC398; [8]) was 2 mg/L. For the same compound, the MIC (S. aureus USA300; [9]) was 2 mg/L.
